From paper PMC3527451, “A Pilot Randomized, Placebo Controlled, Double Blind Phase I Trial of the Novel SIRT1 Activator SRT2104 in Elderly Volunteers” (PLoS ONE, 2012)
Entries after “also recorded” stand apart in the source; their conditions may differ. Read-outs that look alike come from different tables or passages of the source.

Legend:
[1] = system: elderly male and female volunteers; assay: Serum lipid profile at baseline and after 28 days treatment; type: in vivo, human
Experimental: At every visit (including at screening and follow-up), blood and urine samples were collected for clinical laboratory assessments (general blood biochemistry, full blood count, coagulation parameters and urinalysis). On the same days, physical examination, vital signs (resting pulse rate, respiration rate, temperature, and blood pressure readings), pre- and post-dose 12-lead ECG and a review of adverse events (AE) and any medications received were also performed. Safety evaluations were based on the incidence, severity and type of AEs and clinically significant changes from baseline in physical examination findings, vital signs or clinical laboratory results.

[2] = system: bacterial reverse mutation assay (AMES test), mouse lymphoma and mouse micronucleus; design: method as in ref 17, 18; SRT2104 Investigator's Brochure; conditions: preclinical; SRT2104 Investigator's Brochure; cited from earlier work
CYP1A = conditions: human liver microsomes; cited from earlier work
CYP2C9 = conditions: human liver microsomes; cited from earlier work
CYP3A4 [3] = conditions: human liver microsomes; cited from earlier work
CYP3A4 [4] = system: CYP3A4; design: method as in ref 17, 18 (a number printed in a supplementary file, which may have a reference list of its own: not looked up in the article's list); conditions: cultured hepatocytes, at the concentrations tested; cited from earlier work
[5] = cited from earlier work
healthy male volunteers = conditions: young healthy volunteers, up to 7 days dosing of 0.03–3.0 g/day; cited from earlier work
rat = system: rat; design: method as in SRT2104 Investigator's Brochure; conditions: ref SRT2104 Investigator's Brochure, cited from earlier work; for NOAEL: 28 days
dog = system: dog; design: method as in SRT2104 Investigator's Brochure; conditions: ref SRT2104 Investigator's Brochure, cited from earlier work
[6] = cited from earlier work; remark: listed apart in the source
SIRT2 = conditions: SIRT1 activation over SIRT2; ref SRT2104 Investigator's Brochure; cited from earlier work

With Cc1nc(-c2cccnc2)sc1C(=O)Nc1ccccc1-c1cn2c(CN3CCOCC3)csc2n1 [SRT2104] the “serum cholesterol levels, change relative to baseline as compared to placebo” value ([1]; 0.5 g/day, day 28, p = 0.0071) was “statistically significant decrease”, the “increase in mean HDL:LDL ratio as compared to placebo” value ([1]; 2.0 g/day, day 28, p = 0.0141) was “statistically significant” and the “serum cholesterol levels, change relative to baseline as compared to placebo” value ([1]; 2.0 g/day, day 28, p = 0.0181) was “statistically significant decrease”. For the same compound, the “total cholesterol, LDL levels and HDL:LDL ratio after drug washout” value ([1]; 7 days of drug washout) was “reverted to baseline values”, the “high-density lipoprotein, HDL” value ([1]; day 28) was “not changes” and the “low-density lipoprotein (LDL) cholesterol” value ([1]; day 28) was “decreases”. For the same compound, the “mean HDL:LDL ratios” value ([1]; day 28, 0.5 and 2.0 g/day) was “dose-dependent increase”, the “mean serum triglyceride concentration” value ([1]; day 28 relative to baseline, as compared to placebo, not dose-dependent, only a trend for 2.0 g/day) was “decrease” and the “Serum cholesterol, LDL levels and triglycerides” value ([1]; with treatment, 0.5 or 2.0 g for 28 days) was “decreased”. For the same compound, the genotoxicity [2] was “not genotoxic”, the “inhibition of CYP1A” value (CYP1A) was “not an inhibitor; also recorded: does not inhibit” and the “inhibition of CYP2C9” value (CYP2C9) was “not an inhibitor; also recorded: does not inhibit”. The “inhibition of CYP3A4” value (CYP3A4 [3]) was “not an inhibitor; also recorded: does not inhibit”, the “induction of CYP3A4” value (CYP3A4 [4]) was “not a significant inducer” and the “dose proportionality of AUC(0-t) and Cmax” value ([5]; dose range 0.03 to 1.0 g/day) was “approximate dose proportionality”. For the same compound, the “dose proportionality of AUC(0-t) and Cmax” value ([5]; doses greater than 1.0 g/day up to 3.0 g/day) was “less than dose proportional increase between 1.0–3.0 g/day”, the “effect of dose on elimination half-life (t1/2)” value ([5]; doses up to 3.0 g/day) was “not affected by dose; also recorded: similar” and the “terminal elimination half-life (t½)” value ([5]; healthy male volunteers, 0.03 – 3.0 g/day, liquid suspension, ref SRT-2104-001 (19)) was 8 to 24 h. For the same compound, the tolerability (healthy male volunteers) was “well tolerated and safe”, the “vacuolation of pancreatic acinar cells, animals affected” value (rat; female rat, Day 29, not seen after 4 weeks recovery) was 3/10 and the NOAEL (rat; female rats) was 1000 mg/kg. For the same compound, the NOAEL (rat; male rats, highest dose tested) was 2000 mg/kg, the tolerability (rat; rat, up to 2.0 g/kg for 28 days) was “well tolerated at all doses” and the tolerability (dog; dog, up to 2.0 g/kg for 28 days) was “well tolerated at all doses”. For the same compound, the “increase in indirect bilirubin” value (dog; female dogs, 2.0 g/kg/day group) was under 2 X, the NOAEL (dog; male and female dogs, 28 days) was 1000 mg/kg and the “effect of food on overall exposure” value ([6]; 0.5 and 2.0 g doses, standardized solid meal vs fasted state) was “increase exposure levels; also recorded: increase in overall exposure”. The “effect of food on inter-subject variability in exposure” value ([6]; fed state vs fasted state) was “substantial reduction in inter-subject variability” and the “fold selectivity as compared to SIRT2” value (SIRT2) was over 100.
